# Like-named read-outs stand apart in the source and are kept apart here.
# Tests used:
# [1] = target: wild type PARP1 (Homo sapiens, UniProt P09874); assay: Automodification and click-chemistry based immunoblot activity analysis
# Experimental: Automodification and Immunoblotting Activity Analysis. […] 20 μL of the reaction was taken out and saved for SDS-PAGE analysis. The remaining reaction mixtures were further labeled with azide-biotin (for 1-4) or phosphine-PEG3-Biotin (for 5 and 6) through copper(I)-catalyzed azide alkyne cycloaddition (CuAAC) and Staudinger reaction. The CuAAC reactions were performed for one hours at room temperature in 40 μL volume, which contain 30 μL PARP1 automodification mixtures, 2 mM THPTA, 1 mM CuSO4, 100 μM azide-biotin, and 10 mM sodium ascorbate in PBS. […] The levels of auto-PARylation were evaluated by immunoblots using a streptavidin-HRP conjugate for detection of the biotinylated PARP1 via click chemistry and Staudinger reaction.
# [2] = target: T1, purified human full-length PARP1 (Homo sapiens, UniProt P09874); assay: HPLC-based kinetic assay, PARP activity (auto-PARylation); format: biochemical; conditions: substrate of PARP1, 30° C.
# T1 construct: His6 (C); made in house; host or cells: E. coli BL21 (DE3), pET-28a(+)
# T1 sequence (P09874 whole entry): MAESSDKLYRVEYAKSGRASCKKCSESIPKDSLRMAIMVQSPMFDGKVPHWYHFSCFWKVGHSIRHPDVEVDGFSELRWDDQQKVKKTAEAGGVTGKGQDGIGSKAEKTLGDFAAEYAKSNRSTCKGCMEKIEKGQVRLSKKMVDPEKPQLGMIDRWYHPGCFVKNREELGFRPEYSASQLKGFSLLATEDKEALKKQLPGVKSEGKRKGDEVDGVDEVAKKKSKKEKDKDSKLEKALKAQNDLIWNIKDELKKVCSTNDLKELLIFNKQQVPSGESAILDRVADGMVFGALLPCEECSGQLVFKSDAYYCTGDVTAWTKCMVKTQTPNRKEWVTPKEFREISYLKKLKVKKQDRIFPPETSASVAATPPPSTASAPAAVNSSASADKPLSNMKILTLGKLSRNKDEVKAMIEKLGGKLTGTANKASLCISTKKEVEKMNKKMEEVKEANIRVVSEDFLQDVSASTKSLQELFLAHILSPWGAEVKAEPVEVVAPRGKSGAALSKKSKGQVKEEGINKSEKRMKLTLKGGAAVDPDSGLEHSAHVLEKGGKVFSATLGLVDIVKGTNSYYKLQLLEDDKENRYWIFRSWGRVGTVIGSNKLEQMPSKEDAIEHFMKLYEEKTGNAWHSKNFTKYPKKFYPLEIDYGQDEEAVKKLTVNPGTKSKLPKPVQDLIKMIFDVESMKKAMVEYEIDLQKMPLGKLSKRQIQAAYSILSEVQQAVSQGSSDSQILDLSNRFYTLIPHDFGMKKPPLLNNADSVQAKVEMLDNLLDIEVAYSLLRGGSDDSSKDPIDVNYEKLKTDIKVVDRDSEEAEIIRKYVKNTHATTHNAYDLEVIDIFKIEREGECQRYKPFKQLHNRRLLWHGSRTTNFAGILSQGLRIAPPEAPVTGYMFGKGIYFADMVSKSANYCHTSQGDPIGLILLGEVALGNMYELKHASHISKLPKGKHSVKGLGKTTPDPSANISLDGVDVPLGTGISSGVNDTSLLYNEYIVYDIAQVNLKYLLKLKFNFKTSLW
# Experimental: (§1) High-performance Liquid Chromatography (HPLC)-based Kinetic Assays. Auto-PARylation of PARP1 was carried out in 80 μL assay solutions (30 mM HEPES, pH 8.0, 5 mM MgCl2, 5 mM CaCl2, 1 mM DTT, 100 ng/μL of activated DNA, 100 ng/μL BSA) containing varied concentrations of NAD^+ (50, 100, 250, 450, 600, and 750 μM) or NAD^+ analogues (2, 6; see Table 1) at 30° C. with purified PARP1 enzymes. The reactions were quenched at different time points (NAD^+: 0, 2.5, 5, 10, 15, and 20 min; 2: 0, 60, 120, 180, 240, and 300 min; 6: 0, 5, 10, 15, 20 and 30 min) using 20% ice-cold TCA. After centrifugation, the reaction mixtures were analyzed by reverse phase HPLC using a semipreparative C18 Kinetex column (5 μm, 100 Å, 150×10.0 mm, from Phenomenex Inc, Torrance, Calif.) (mobile phase A: 0.1% formic acid (aq); mobile phase B: 0.1% formic acid in acetonitrile; flow rate=2.0 ml/min; 0-8 min: 0% B, 8-12 min: 0-50% B, 12-13 min: 50-2.5% B, 13-18 min: 2.5-40% B, 18-20 min: 40-0% B) with detection of UV absorbance at 260 nm. […] NADase reaction rates were determined based on the increase in peak areas of the assigned peaks of ADPr and ADPr analogues, while reaction rates for PARP activities were measured based on the decrease in peak areas of the assigned peaks of NAD^+ and NAD^+ analogues excluding NADase activity. […]
# [3] = target: T1, purified human full-length PARP1; conditions: literature value; read-out: Km with PARP1, previously reported value; cited from earlier work
# [4] = target: T1, purified human full-length PARP1; assay: HPLC-based kinetic assay, NADase activity; format: biochemical; conditions: hydrolysis catalyzed by PARP1, 30° C.
# Experimental: as §1
# Sequence of wild type PARP1 (P09874 whole entry): as above
SMILES,"suppression of PARP1 catalytic activity / automodification signal ([1]; automodification with NAD2 and NAD6, versus no-inhibitor controls)",Km [2],"kcat, PARP activity [2]","PARP1 automodification signal (substrate use), biotinylation-based immunoblot ([1]; 250 μM NAD^+ or analogue, 5 μM PARP1, 30° C., 2 hours)",Km [3],Km [4],"kcat, NADase activity [4]"
C[C@]1(c2nc3c(C(N)=O)cccc3[nH]2)CCCN1 [veliparib],potently suppressed,,,,,,
"NC(=O)c1ccc[n+]([C@@H]2O[C@H](COP(=O)([O-])OP(=O)(O)OC[C@H]3O[C@@H](n4cnc5c(N)ncnc54)[C@H](O)[C@@H]3O)[C@@H](O)[C@H]2O)c1 [NAD^+, nicotinamide adenine dinucleotide]",,145 ± 36 µM,4.7 ± 0.4 min⁻¹,no automodification signals,97 ± 7 µM,472 ± 187 µM,0.39 ± 0.08 min⁻¹

# From patent US11497787B2, “Functionalized poly-ADP-ribose polymers for drug delivery” (University of Southern California, priority 2019, dated 2022)
